# Reference: patent US5384412A, “Saccharide intermediates in the formation of the calicheamicin and esperamicin oligosaccharides” (priority 1992, dated 1995)
# Like-named read-outs stand apart in the source and are kept apart here.
# Legend:
# duplex DNA = details: cited from earlier work
# DNA = details: Zein et al., Science, 244:697 (1989), cited from earlier work
# [1] = tested on: 93 base-pair Sal I - Sph I double-stranded DNA fragment of pBR322; assay: DNase I footprinting of oligosaccharides on labeled DNA fragment; type: binding; details: for DNA binding selectivity from footprinting: footprinting studies, O-methyl glycoside; for protection against DNase I cleavage (footprinting): pre-incubated with DNA at 37° C. for 30 minutes, autoradiography
# Source text: Footprinting studies the O-methyl glycosides of saccharide Compounds 167a, 100, its C-4 epimer (100a) and a similar compound lacking the iodo group in Ring C, 100b, shown below, were designed to probe these questions.
# The oligosaccharides 167a, 100, 100a, and 100b were obtained by chemical synthesis following procedures similar to those discussed before. The 93 base-pair Sal I - Sph I double-stranded DNA fragment of pBR322 was obtained enzymatically and was [5'-^32 P]-labeled on one strand. pBR322 DNA was cleaved at the unique Sal I site, dephosphorylated using calf intestine phosphatase, 5'-^32 P]-phosphorylated using T4 polynucleotide kinase and [g-^32 P ATP (4.5 ^m Ci/pmol), and cleaved again at the unique Sph I site. These precursors generated a 93 base-pair double-stranded fragment, [5'-^32 P]-labeled at the Sal I end, which was purified by gel electrophoresis in a nondenaturing 10 percent polyacrylamide gel and subsequent column chromatography on Sephadex G-25. The oligosaccharides were pre-incubated with the DNA fragment at 37° C. for 30 minutes and DNase I was added to cleave the DNA and generate footprinting patterns by autoradiography.
# The degree of protection against DNase I digestion offered by both the natural and unnatural stereoisomers was determined by comparing the amount of radioactivity in adjacent lanes along the electrophoresis gel. The protected regions coincided only roughly with calicheamicin γ1^I recognition sequences [(a) Zein et al., Science, 240:1198 (1988); (b) Zein et al., Science, 244:697 (1989); (c) Ding et al., J. Am. Chem. Soc., 113:6617 (1991)], Schreiber [Hawley et al., Proc. Natl. Acad. Sci. U.S.A., 86:1105 (1989)] and observed calicheamicin γ1^I cleavage sites.
compound,measurement,setting,value
"CCN[C@H]1CO[C@@H](O[C@H]2[C@H](O[C@H]3C#CC=CC#C[C@@]4(O)CC(=O)C(NC(=O)OC)=C3/C4=C\CSSSC)O[C@H](C)[C@@H](NO[C@H]3C[C@H](O)[C@H](SC(=O)c4c(C)c(I)c(O[C@@H]5O[C@@H](C)[C@H](O)[C@@H](OC)[C@H]5O)c(OC)c4OC)[C@@H](C)O3)[C@@H]2O)C[C@@H]1OC (stereo in doubt) [calicheamicin γ1^I, reference compound]",DNA binding site,duplex DNA; double stranded DNA minor groove,anchors itself on the 5' side of a TCCT sequence
same,sequence specificity of DNA cleaving,DNA,double DNA strand cuts at specific sequences
CCN[C@H]1CO[C@@H](O[C@H]2[C@H](OC)O[C@H](C)[C@@H](NO[C@H]3C[C@H](O)[C@H](SC(=O)c4c(C)c(I)c(O[C@@H]5O[C@@H](C)[C@H](O)[C@@H](OC)[C@H]5O)c(OC)c4OC)[C@@H](C)O3)[C@@H]2O)C[C@@H]1OC [Compound 100],interaction with duplex DNA,"duplex DNA; previous studies by the Ellestad, Schreiber, Kahne and Danishefsky groups",selective interactions of the calicheamicin γ1^I oligosaccharide with duplex DNA along specific sequences within the minor groove
same,DNA binding selectivity from footprinting,[1],selective binding of oligosaccharide Compound 100 with specific base sequences of DNA
same,DNA binding selectivity from footprinting,[1]; listed as calicheamicin oligosaccharide glycoside,"binds specifically to DNA, the preferred saccharide binding sites do not coincide precisely with those observed for intact calicheamicin"
same,protection against DNase I cleavage (footprinting),[1],"concentration-dependent protection, presumably due to binding, in the region of three calicheamicin γ1^I binding sites: CTCT, TCCT and AGGA"
CCN[C@H]1CO[C@@H](O[C@H]2[C@H](OC)O[C@H](C)[C@H](NO[C@H]3C[C@H](O)[C@H](SC(=O)c4c(C)c(I)c(O[C@@H]5O[C@@H](C)[C@H](O)[C@@H](OC)[C@H]5O)c(OC)c4OC)[C@@H](C)O3)[C@@H]2O)C[C@@H]1OC [Compound 100a],protection against DNase I cleavage (footprinting),[1],no protection at the same concentrations
CCN[C@H]1CO[C@@H](O[C@H]2[C@H](OC)O[C@H](C)[C@@H](NO[C@H]3C[C@H](O)[C@H](SC(=O)c4c(C)cc(O[C@@H]5O[C@@H](C)[C@H](O)[C@@H](OC)[C@H]5O)c(OC)c4OC)[C@@H](C)O3)[C@@H]2O)C[C@@H]1OC [Compound 100b],protection against DNase I cleavage (footprinting),[1],lack of protection under the same conditions
esperamicin,sequence specificity of DNA cleaving,DNA,no strong sequence specificity in DNA cleaving
same,sequence specificity of DNA cleaving,DNA; listed as Esperamicins,less sequence specific
